The source made the active and inactive calls. How the calls were made is not given here.
Assays:
[1] = growth inhibition of apl2Δ yeast, dose response, selectivity assay for post-Golgi transport modulator project, S. cerevisiae, secondary screen, background strain comparison (AID 789); conditions: S. cerevisiae background (wild-type parent) strain growth inhibition
[2] = system: S. cerevisiae apl2Δ mutant growth inhibition; assay: as above

Compound | IC50 [1] | IC50 [2]
O=C(NCc1ccc2c(c1)OCO2)c1ccc(-n2cnnn2)cc1 | > 10 µM | > 10 µM (inactive)
CC(C)(C)n1nnnc1CN(Cc1cccnc1)Cc1ccccc1Cl | > 10 µM | > 10 µM (inactive)
Cc1cccc2cc(C#N)c(NCCCn3ccnc3)nc12 | > 10 µM | > 10 µM (inactive)
CCN1CCN(c2c(Cl)cccc2NC(=O)c2ccc(Br)o2)CC1 | > 10 µM | > 10 µM (inactive)
ON=Cc1cccn1-c1ccccc1 | > 10 µM | > 10 µM (inactive)
OC(COCc1ccc(Cl)cc1)CN1CC=C(c2ccccc2)CC1 (centres undefined) | 20.8 µM | 8.58 µM
COc1cccc(-c2cc(C(=O)N3CCN(C(c4ccccc4)c4ccccc4)CC3)no2)c1 | > 10 µM | > 10 µM (inactive)
C/C(CCC12CC3CC(CC(C3)C1)C2)=N\NC(N)=S | 5.28 µM | 4.94 µM
O=Cc1cc2ccccc2nc1SCc1ccc(Cl)cc1 | > 10 µM | > 10 µM (inactive)
Cc1sc(NC(=O)c2ccco2)c(C(c2cccnc2)N2CCC(C)CC2)c1C (centres undefined) | 5.77 µM | 13.9 µM (inactive)
CCC(C)(C)NC(=O)CN(C(=O)CCC(=O)Nc1ccccn1)c1ccc(F)c(Cl)c1 | > 10 µM | > 10 µM (inactive)
O=C(O)c1ccc(N2CCCCC2)cc1 | > 10 µM | > 10 µM (inactive)
CCOC(=O)C1CCN(Cc2cnc(Oc3ccc(Cl)cc3C)s2)CC1 | > 10 µM | > 10 µM (inactive)
O=C(O)c1cc(-c2ccc(/C=N/Nc3ccc(Cl)cc3)o2)ccc1Cl | 16.4 µM | 15.5 µM
CC(=O)NC1C(c2nc3ccccc3s2)=C(c2ccccc2)C(=O)N1c1ccc(C)cc1 (centres undefined) | 1.92 µM | 2.89 µM (inactive)
Cn1c2ccc(Cl)cc2c2nc3ccccc3nc21 | > 10 µM | > 10 µM (inactive)
Nc1ccc(Oc2ccc3nc(-c4ccccc4)c(-c4ccccc4)nc3c2)cc1 | 1.21 µM | 2 µM (inactive)
COc1cccc(C(=O)N2CCN(C3CCC(c4ccccc4)CC3)CC2)c1OC (centres undefined) | 23.9 µM | 14.6 µM
CCOC(=O)c1c(-n2c(C)cc(C=C3C(=O)NC(=S)NC3=O)c2C)sc2c1CCCC2 | 11.5 µM | > 10 µM (inactive)
Cc1cc(C)n2nc(C(=O)NCc3ccccc3)cc2n1 | > 10 µM | > 10 µM (inactive)
CCCC(=O)Nc1ccc(Cl)c(NC(=O)c2cccnc2Cl)c1 | > 10 µM | > 10 µM (inactive)

Compound | IC50 [1] | IC50 [2]
CCCn1nc([N+](=O)[O-])c(C(C#N)c2nc3ccccc3s2)c(Cl)c1=O (centres undefined) | 2.16 µM | 13.7 µM (inactive)
CCn1c(-c2c[nH]c3ccccc23)n[nH]c1=S | > 10 µM | > 10 µM (inactive)
Cc1cc2ncn(CC(O)COc3cccc(C(=O)O)c3)c2cc1C (centres undefined) | > 10 µM | > 10 µM (inactive)
CC1CCCN(CCOCCOc2ccc(Cl)cc2Br)C1 (centres undefined) | > 10 µM | 21.7 µM
c1ccc2c(c1)oc1c(Nc3ccc(CN4CCOCC4)cc3)ncnc12 | > 10 µM | > 10 µM (inactive)
CCC(=O)N(CCO)Cc1cc2ccc(C)c(C)c2[nH]c1=O | > 10 µM | > 10 µM (inactive)
O=C(OCn1ncc(Br)c(Br)c1=O)c1ccc(F)cc1 | 5.38 µM | > 10 µM (inactive)
Cc1c(Cl)c([N+](=O)[O-])nn1Cc1ccc(C(=O)N/N=C\c2cccc(Br)c2)o1 | > 10 µM | > 10 µM (inactive)
COc1ccc(CN(C(=O)Cc2cccs2)C(C(=O)NC2CCCC2)c2ccncc2)cc1 (centres undefined) | > 10 µM | > 10 µM (inactive)
COc1ccc(-c2nnc(CSc3nc4ccccc4c(=O)n3C)o2)cc1OC | > 10 µM | > 10 µM (inactive)
CSc1ncccc1C(=O)OCC(=O)N1CCOCC1 | > 10 µM | > 10 µM (inactive)
CCOCCCNC(=O)c1cc2sc(Cl)cc2n1CC | > 10 µM | > 10 µM (inactive)
O=C(Nc1cc(C(F)(F)F)ccc1-n1cncn1)c1ccc(-c2ccccc2)cc1 | > 10 µM | > 10 µM (inactive)
Cc1ccc(C(C)C)c(OCCCN2CC(C)OC(C)C2)c1 (centres undefined) | > 10 µM | > 10 µM (inactive)
Clc1cc(Br)ccc1OCCOCCN1CCOCC1 | > 10 µM | > 10 µM (inactive)
O=C(OCn1ncc(Cl)c(Cl)c1=O)c1ccc(C(F)(F)F)cc1 | > 10 µM | > 10 µM (inactive)
COCCNc1cc(C)nc2c3c(C)cc(C)nc3nn12 | > 10 µM | > 10 µM (inactive)
O=C(NCc1ccco1)C(c1cccs1)N(C(=O)Cc1cccs1)c1ccccc1 (centres undefined) | > 10 µM | > 10 µM (inactive)
Cc1cc(C)nc(NC(=O)CSc2nn(C)c(=S)s2)n1 | > 10 µM | > 10 µM (inactive)
Cc1ccc(/C=N/n2cnc3sc(-c4ccccc4)cc3c2=O)o1 | > 10 µM | > 10 µM (inactive)
CCc1cc(=O)oc2cc(C)c(CN3CCCC(C)C3)c(O)c12 (centres undefined) | > 10 µM | > 10 µM (inactive)

Compound | IC50 [1] | IC50 [2]
COc1ccc(N2CCN(C(=O)CCNS(=O)(=O)c3ccc(Br)s3)CC2)cc1 | > 10 µM | > 10 µM (inactive)
O=C(Nc1nnc(-c2ccc(Cl)cc2)o1)c1ccccc1Br | 13.1 µM | > 10 µM (inactive)
CCOc1ccc(-c2[nH]ncc2Oc2ccccc2OCC)c(O)c1 | 16 µM | 13.4 µM
COc1cc(CN2CCN(c3ccc(C)cc3)CC2)cc([N+](=O)[O-])c1O | > 10 µM | > 10 µM (inactive)
COc1ccc(C(=O)c2c(C(F)(F)F)oc3c2C(=O)c2ccccc2C3=O)cc1 | 2.32 µM | > 10 µM (inactive)
FC(F)(F)COc1nc(N2CCCCC2)nc(N2CCNCC2)n1 | > 10 µM | > 10 µM (inactive)
O=S(=O)(c1ccc(Cl)cc1)N1CCN(C2CCN(Cc3ccccc3)CC2)CC1 | > 10 µM | > 10 µM (inactive)
O=C(NCC(c1cccnc1)N1CCN(c2ccccc2)CC1)C1CCCCC1 (centres undefined) | > 10 µM | > 10 µM (inactive)
O=C(COc1ccc(Cl)cc1)Nc1ccc(N2CCN(C(=O)c3ccco3)CC2)cc1 | > 10 µM | > 10 µM (inactive)
Nc1c(C(=O)OCC2CCCO2)c2nc3ccccc3nc2n1-c1ccc2c(c1)OCCO2 (centres undefined) | > 10 µM | > 10 µM (inactive)
O=C(c1ccco1)N1CCN=C1SCc1cccnc1 | > 10 µM | > 10 µM (inactive)
COc1ccc(Nc2nc(N)nc(CSc3nnc(N)s3)n2)cc1 | > 10 µM | > 10 µM (inactive)
CC(C)OC(=O)CSc1nnc(-c2ccc(Cl)cc2)n1N | > 10 µM | > 10 µM (inactive)
Cc1ccc(-c2csc3nnc(SCC(=O)Nc4cccc(C)n4)n23)cc1 | > 10 µM | > 10 µM (inactive)
COc1ccccc1N1CCN(Cc2ccccc2F)CC1 | > 10 µM | > 10 µM (inactive)
Cc1cccc(OCC(=O)O/N=C(\N)Cc2ccc(Cl)cc2)c1 | 10.4 µM | > 10 µM (inactive)
c1ccc(-c2ccc(-c3cnc4n3CCCCC4)cc2)cc1 | > 10 µM | > 10 µM (inactive)
COC(=O)C1=CN(CCCN2CCCC2=O)C=C(C(=O)OC)C1c1ccccc1C(F)(F)F | > 10 µM | > 10 µM (inactive)
CC1CC(C)CN(CC(C)(C)NS(=O)(=O)c2ccc(Cl)cc2)C1 (centres undefined) | > 10 µM | > 10 µM (inactive)
Cc1ccc(C)c(C(=O)NCc2ccncc2)c1 | > 10 µM | > 10 µM (inactive)
CCOC(=O)Cn1cc(C=O)c2ccccc21 | > 10 µM | > 10 µM (inactive)

Compound | IC50 [1] | IC50 [2]
O=C1NC2(Nc3ccccc31)C(=O)Nc1ccccc12 (centres undefined) | > 10 µM | > 10 µM (inactive)
O=C(Nc1nc(-c2ccccn2)cs1)c1ncc(Cl)c(Cl)c1Cl | 13.3 µM | 19.3 µM (inactive)
O=c1c2c3c(sc2ncn1/N=C/c1ccc([N+](=O)[O-])o1)CCCC3 | 1.59 µM | 2.1 µM (inactive)
COc1ccc(/C=C2\SC(=S)N(NC(=O)c3csc4c3CCCC4)C2=O)cc1 | > 10 µM | > 10 µM (inactive)
CCc1ccc(C(=O)/C=C/c2ccc([N+](=O)[O-])o2)cc1 | 20.7 µM | > 10 µM (inactive)
O=C(NCc1ccc2c(c1)OCO2)c1ccc(CS(=O)(=O)c2cccc(C(F)(F)F)c2)o1 | > 10 µM | > 10 µM (inactive)
N=c1c2c(-c3ccccc3)c(-c3ccccc3)n(Cc3ccco3)c2ncn1Cc1ccco1 | 21.5 µM | 16.7 µM
O=C(OCn1ncc(Cl)c(Cl)c1=O)c1ccccc1Cl | 16.6 µM | > 10 µM (inactive)
COc1cc2[nH]c(=S)n(CCCN3CCOCC3)c(=O)c2cc1OC | > 10 µM | > 10 µM (inactive)
Cc1ccc(SC(=O)COc2ccc(C)c(C)c2)cc1 | > 10 µM | > 10 µM (inactive)
Cc1ccc(CSc2nc3ccccc3cc2C=O)cc1 | 2.1 µM | 7.24 µM (inactive)
CCOc1ccc(NC(=O)C/C(N)=N/O)cc1 | > 10 µM | > 10 µM (inactive)
N#CC1=C(N)NC(SCc2ccc(F)cc2)=C(C#N)C12CCCCC2 | 16.3 µM | 7.78 µM
Cc1nc(NC(=O)c2ccccc2)sc1-c1csc(Nc2ccc(F)cc2)n1 | > 10 µM | > 10 µM (inactive)
CCC(=O)c1ccc(N2CCN(C(=O)c3ccc(Br)cc3)CC2)c(F)c1 | > 10 µM | > 10 µM (inactive)
CC1CCCCN1CCNC(=O)Cn1nc(-c2ccccc2)ccc1=O (centres undefined) | > 10 µM | > 10 µM (inactive)
COc1cccc(NC(=O)C2CCCN2C(=O)OCc2ccccc2)c1 (centres undefined) | > 10 µM | > 10 µM (inactive)
O=C1OCC2=C1C(c1ccc(F)cc1)Sc1ccccc1N2 (centres undefined) | > 10 µM | > 10 µM (inactive)
COc1ccc(C2=NC(C(F)(F)F)(C(F)(F)F)c3c(n(C)c(=O)n(C)c3=O)N2)cc1 | > 10 µM | > 10 µM (inactive)

Source: PubChem BioAssay AID789 (SRMLSC, 2007)
